# Values of other authors in patent US9617305B2 (priority 2011, dated 2017).
# Where a SMILES comes first, the peptide text is derived from it. Bridges are numbered along the chain shown (N, C = ends).
# Details: after oral administration at therapeutic dose levels
smiles,measurement,value
"C[C@@H]1NC(=O)[C@@H]2CCCN2C(=O)[C@H](CC(N)=O)NC(=O)[C@@H]2CSSC[C@H](N)C(=O)N[C@H]3CSSC[C@H](NC1=O)C(=O)N[C@@H]([C@@H](C)O)C(=O)NCC(=O)N[C@H](C(=O)N[C@@H](Cc1ccc(O)cc1)C(=O)O)CSSC[C@H](NC(=O)[C@H](Cc1ccc(O)cc1)NC(=O)[C@H](CCC(=O)O)NC3=O)C(=O)N2 [linaclotide, Linaclotide] (H-CCEYCCNPACTGCY-OH; disulfide 1-6, 2-10, 5-13)",levels of linaclotide seen systemically,no detectable levels
